Experimental data taken from US8853394B2, “Pharmacokinetically improved compounds” (Surface Logix, Inc., priority 2006, dated 2014).
pIC50: −log10 of the molar value. In brackets after ≈: the same amount, converted by molar mass. Read-outs that look alike come from different tables or passages of the source.

How the values were obtained:
PDE-3 = PDE-3 inhibition; assay type: biochemical
[1] = T1/2 in rat liver microsomes; assay type: in vitro ADME
[2] = T1/2 in human liver microsomes; assay type: in vitro ADME
PDE-4 human = PDE-4 human inhibition; assay type: biochemical
Caco-2 permeability = assay type: in vitro ADME; details: human; for Papp A→B: AtoB; for Papp B→A: BtoA
Description: Several model systems are available, employing monolayers of various cell types, for evaluation of active transport of pharmaceutically active substances. For example, monolayers of Caco-2 intestinal epithelial cells can be used to evaluate active transport of substances between the intestine and the bloodstream. When plated on a surface which allows the flow of material from apical to basolateral and vice versa, such cells form a biological membrane which can be used to simulate physiological absorption and bioavailability. In another example, mouse brain capillary endothelial cell (MBEC) lines have been established to evaluate active transport in and out of the central nervous system. Another example of such cells is HT29 human colon carcinoma cells. Further, monolayers expressing particular transporter proteins can be established using transfected cells. For example, Sasaki et al (2002) J. Biol. Chem. 8:6497 used a double-transfected Madin-Darby canine kidney cell monolayer to study transport of organic anions.

PDE-6 bovine = biological target: T1, PDE-6 bovine (Bos taurus, UniProt P11541+P23439); assay: PDE-6 bovine inhibition; assay type: biochemical
T1 sequence (P11541 2-856 limits assumed): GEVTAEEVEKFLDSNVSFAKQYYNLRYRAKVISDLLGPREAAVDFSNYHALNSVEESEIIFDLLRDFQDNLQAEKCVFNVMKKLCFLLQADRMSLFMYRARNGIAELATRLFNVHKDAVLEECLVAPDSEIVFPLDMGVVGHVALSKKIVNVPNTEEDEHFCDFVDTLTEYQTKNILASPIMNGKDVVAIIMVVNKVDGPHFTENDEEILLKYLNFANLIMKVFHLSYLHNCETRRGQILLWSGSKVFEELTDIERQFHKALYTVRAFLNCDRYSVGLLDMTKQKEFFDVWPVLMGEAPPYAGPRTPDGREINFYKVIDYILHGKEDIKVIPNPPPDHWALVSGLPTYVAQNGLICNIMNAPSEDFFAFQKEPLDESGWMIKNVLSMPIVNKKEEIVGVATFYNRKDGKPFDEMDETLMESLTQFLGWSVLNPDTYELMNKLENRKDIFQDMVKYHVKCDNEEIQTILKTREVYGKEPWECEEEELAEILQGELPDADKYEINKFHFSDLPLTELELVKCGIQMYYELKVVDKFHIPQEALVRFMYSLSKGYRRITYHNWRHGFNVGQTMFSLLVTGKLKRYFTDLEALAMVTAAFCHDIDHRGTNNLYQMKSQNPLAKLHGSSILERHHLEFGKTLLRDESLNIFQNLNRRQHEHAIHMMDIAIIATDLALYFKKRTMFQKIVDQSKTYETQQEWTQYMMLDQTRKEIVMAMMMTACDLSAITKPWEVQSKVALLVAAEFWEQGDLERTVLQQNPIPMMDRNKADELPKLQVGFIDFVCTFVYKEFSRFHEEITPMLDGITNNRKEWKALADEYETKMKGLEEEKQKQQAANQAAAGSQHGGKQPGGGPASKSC
T1 sequence (P23439 2-850 limits assumed): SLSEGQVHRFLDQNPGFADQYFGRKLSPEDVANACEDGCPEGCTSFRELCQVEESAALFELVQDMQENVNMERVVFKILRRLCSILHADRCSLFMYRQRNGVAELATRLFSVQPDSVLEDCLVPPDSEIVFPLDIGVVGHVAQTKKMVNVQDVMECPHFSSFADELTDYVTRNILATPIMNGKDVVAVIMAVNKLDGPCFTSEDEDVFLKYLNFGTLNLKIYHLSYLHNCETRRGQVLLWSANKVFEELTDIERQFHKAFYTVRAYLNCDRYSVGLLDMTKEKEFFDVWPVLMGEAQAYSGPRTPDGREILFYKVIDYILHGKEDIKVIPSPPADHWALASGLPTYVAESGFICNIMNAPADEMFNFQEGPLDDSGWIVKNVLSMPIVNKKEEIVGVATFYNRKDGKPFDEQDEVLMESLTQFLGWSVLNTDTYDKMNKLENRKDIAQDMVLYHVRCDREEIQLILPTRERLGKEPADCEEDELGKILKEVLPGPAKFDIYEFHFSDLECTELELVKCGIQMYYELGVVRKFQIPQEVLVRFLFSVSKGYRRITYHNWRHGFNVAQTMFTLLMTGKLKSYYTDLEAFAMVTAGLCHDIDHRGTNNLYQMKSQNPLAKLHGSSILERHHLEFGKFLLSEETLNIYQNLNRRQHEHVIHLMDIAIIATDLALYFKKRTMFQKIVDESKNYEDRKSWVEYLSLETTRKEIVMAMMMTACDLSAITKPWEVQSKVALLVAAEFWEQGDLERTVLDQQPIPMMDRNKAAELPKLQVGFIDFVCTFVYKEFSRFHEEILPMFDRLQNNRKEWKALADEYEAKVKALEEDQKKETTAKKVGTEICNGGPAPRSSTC

PDE-1 = PDE-1 inhibition; assay type: biochemical
PDE5 = PDE5 (Homo sapiens, UniProt O76074); assay: PDE-5 human inhibition; assay type: biochemical
Non-Spec Binding = assay type: in vitro ADME
Protein Binding = assay type: in vitro ADME; details: human, human serum components
Experimental: In general, protein binding is assessed by measuring the capacity of molecules of the invention to bind to one or more human serum components or mimics thereof. In one embodiment, suitable functional residues may be identified by screening of surfaces comprising such residues for their ability to resist adsorption of serum components, including, but not limited to serum proteins, and preferably human serum proteins. Candidate residues can be screened directly by attaching them to a solid support and testing the support for protein resistance. Alternatively, candidate residues are incorporated into, or linked to molecules of pharmaceutical interest. Such compounds may be synthesized on a solid support, or bound to a solid support after synthesis. In a non-limiting example of a direct binding assay, immobilized candidate functional residues or molecules incorporating such residues are tested for their ability to bind serum components. The serum components can be labeled with a signaling moiety for detection, or a labeled secondary reagent that binds to such serum components can be used.
A direct binding analysis can also be preformed in liquid phase. For example, test compounds can be mixed with one or more serum components in liquid phase, and the unbound molecules determined.

Solubility = assay type: physicochemical
PAMPA permeability = assay type: in vitro ADME; details: Hex, read-out: PAMPA Hex
[3] = Chronic Cytoxicity (mouse 3T3); assay type: cell-based; details: 3T3 cells
[4] = pH 2.7, aqueous buffer, read-out: Solubility (ug/mL) pH 2.7
[5] = pH 7.4, aqueous buffer, read-out: Solubility (ug/mL) pH 7.4

SMILES | pIC50 (PDE-3) | half-life [1] | half-life [2] | pIC50 (PDE-4 human) | Papp A→B (Caco-2 permeability) | Papp B→A (Caco-2 permeability) | pIC50 (PDE-6 bovine) | pIC50 (PDE-1) | pIC50 (PDE5) | Non-Spec Binding (%) (Non-Spec Binding) | fraction unbound (Protein Binding) | solubility (Solubility; [4]) | solubility (Solubility; [5]) | Papp (PAMPA permeability) | GI50 [3] | LC50 (50% lethal concentration) [3]
CCCc1nc(C)c2c(=O)[nH]c(-c3cc(S(=O)(=O)N4CCN(C(=O)C5CCCO5)CC4)ccc3OCC)nn12 (centres unmarked) [Compound 19] | 5.92 | 24 min | 22.4 min | 6.16 | 7.86 ×10⁻⁶ cm/s | 44.8 ×10⁻⁶ cm/s | 9.16 | 8.59 | 10.25 | 15.5% | 0.104 | – | – | – | – | –
CCCc1nn(C)c2c(=O)[nH]c(-c3cc(S(=O)(=O)N4CCN(CCN5CCOCC5)CC4)ccc3OCC)nc12 [Compound 21] | 5.02 | 34 min | 47 min | 5.43 | – | – | 7.92 | 7.12 | 8.82 | 68.4% | 0.071 | 112 µg/mL (≈ 194 µM) | 26 µg/mL (≈ 45.3 µM) | – | – | –
CCCc1nc(C)c2c(=O)[nH]c(-c3cc(S(=O)(=O)N(C)CC(OC)OC)ccc3OCC)nn12 [Compound 17] | 6.41 | 6.83 min | 1.08 min | 5.96 | 40.5 ×10⁻⁶ cm/s | 39.4 ×10⁻⁶ cm/s | 9.07 | 8.59 | 10.18 | 36.5% | 0.016 | – | – | – | – | –
CCCc1nc(C)c2c(=O)[nH]c(-c3cc(S(=O)(=O)N4CCN(CCN5CCOCC5)CC4)ccc3OCC)nn12 [Compound 15] | 5.65 | 34 min | 30.8 min | 5.43 | 8.45 ×10⁻⁶ cm/s | 40.6 ×10⁻⁶ cm/s | 8.96 | 7.33 | 9.80 | 8.78% | 0.155 | 115 µg/mL (≈ 200 µM) | 110 µg/mL (≈ 192 µM) | – | – | –
CCCc1nc(C)c2c(=O)[nH]c(-c3cc(S(=O)(=O)NCCCN4CCCC4=O)ccc3OCC)nn12 [Compound 13] | 6.11 | 16.6 min | 12.7 min | 6.43 | 10.6 ×10⁻⁶ cm/s | 36.7 ×10⁻⁶ cm/s | 9.19 | 8.46 | 10.29 | 5.95% | 0.0885 | – | – | – | – | –
CCCc1nc(C)c2c(=O)[nH]c(-c3cc(S(=O)(=O)N4CCN(C(=O)CN(C)C)CC4)ccc3OCC)nn12 [Compound 1] | – | 45.4 min | 34 min | – | – | – | 8.36 | 7.02 | 9.85 | – | – | 124 µg/mL (≈ 228 µM) | 111 µg/mL (≈ 204 µM) | ~1.06 ×10⁻⁶ cm/s | – | –
CCCc1nc(C)c2c(=O)[nH]c(-c3cc(S(=O)(=O)N4CCN(CC(=O)N(C)C)CC4)ccc3OCC)nn12 [Compound 16] | 6.03 | 59.9 min | > 60 min | 6.02 | 2.65 ×10⁻⁶ cm/s | 45.4 ×10⁻⁶ cm/s | 9.44 | 7.77 | 10.40 | 9.72% | 0.11 | – | – | – | – | –
CCCc1nc(C)c2c(=O)[nH]c(-c3cc(S(=O)(=O)N4CCN(CC(=O)NC(C)C)CC4)ccc3OCC)nn12 [Compound 18] | 6.29 | 33 min | 44.1 min | 5.89 | 4.11 ×10⁻⁶ cm/s | 46.3 ×10⁻⁶ cm/s | 9.19 | 7.80 | 10.43 | 22.15% | 0.0945 | – | – | – | – | –
CCCc1nc(C)c2c(=O)[nH]c(-c3cc(S(=O)(=O)N(C)C(C)(C)C)ccc3OCC)nn12 [Compound 3] | 6.49 | – | – | – | 50.8 ×10⁻⁶ cm/s | 50.4 ×10⁻⁶ cm/s | 8.43 | 7.92 | 9.97 | – | – | 90.2 µg/mL (≈ 195 µM) | 15 µg/mL (≈ 32.5 µM) | 53.9 ×10⁻⁶ cm/s | > 50000 nM | > 100000 nM
